Experimental data as given in patent publication US20260015313A1, “AMINO ACID ACTIVE ESTER AND SALT THEREOF” (PeptiDream Inc., priority 2022, published 2026).

How the values were obtained:
[1] = Differential scanning calorimetry (DSC) hazard determination (TDSC, QDSC; Category V Hazardous materials, self-reactive substances); type: physicochemical; settings: about 2 mg, SUS pressure-resistant cell, to 500° C. at 10° C./min, nitrogen, line through 2,4-dinitrotoluene and benzoyl peroxide, on or above = hazardous, FIG. 2
Excerpt: Differential scanning calorimetry (DSC) can be used as a method for determining the hazard of an amino acid active ester (Akiyoshi et al., Netsu Sokutei 2018, 45(4), 161-167.; Sakira Kaneko, Netsu Sokutei 1995, 22(1), 36-43.). DSC is an effective means for assessing the hazard of a self-reactive substance, because it can measure the reaction starting temperature (TDSC) and the reaction heat (QDSC) with a trace amount of sample. […] In Japan, DSC is used as a test to determine whether a chemical substance falls under the Category V Hazardous materials (self-reactive substances) under the Japanese Fire Service Act.
Examples of the test for determining whether a chemical substance falls under the Category V Hazardous materials (self-reactive substances) in the Japanese Fire Service Act include a method involving using 2,4-dinitrotoluene and benzoyl peroxide as reference compounds, plotting the reference points of QDSC and TDSC for each of the compounds and drawing a straight line connecting the two points as the hazard determination line.
The QDSC and TDSC values of 2,4-dinitrotoluene (Compound No. 115) and benzoyl peroxide (Compound No. 116) were taken from the following literature: DSC Data Collection for Reactive Substances (2) (RIIS-SD-89), https://www.jniosh.johas.go.jp/publication/houkoku/houkoku_2007_03_list.html.
The detailed procedure for differential scanning calorimetry (DSC) is as follows:
The amino acid active ester (about 2 mg), which had been sealed in a SUS pressure-resistant cell, was set in a heat flux type differential scanning calorimeter, and heated to 500° C. at 10° C./min in an atmosphere of nitrogen 50 mL/min. The sealing into the cell was carried out in atmospheric air, and a blank cell was used as a reference material. The value of indium (In) measured under the same conditions was used as a standard for correction.
In FIG. 2, the dotted line indicates the hazard determination line. […] The abscissa axis indicates the log(TDSC-25) value, and the ordinate axis indicates the log QDSC value. In FIG. 2, -L-Hph-DBE_HCl indicates the hydrochloride of 3,5-dinitrobenzyl (S)-2-amino-4-phenylbutanoate (Compound No. 114), Gly-DBE_HCl indicates the hydrochloride of 3,5-dinitrobenzyl glycinate (Compound No. 112), -L-Ile-DBE_HCl indicates the hydrochloride of 3,5-dinitrobenzyl L-isoleucinate (Compound No. 111), -L-W7N-DBE_HCl indicates the hydrochloride of 3,5-dinitrobenzyl (S)-2-amino-3-(1H-pyrrolo[2,3-b]pyridin-3-yl)propanoate (Compound No. 113), -L-Ile-DCPE_HCl indicates (2,6-dichloropyridin-4-yl)methyl L-isoleucinate (Compound No. 21), -L-W7N-TEE_HCl indicates 2,2,2-trifluoroethyl (S)-2-amino-3-(1H-pyrrolo[2,3-b]pyridin-3-yl)propanoate (Compound No. 81), and Gly-DCPE_HCl indicates (2,6-dichloropyridin-4-yl)methyl glycinate (Compound No. 99).

tRNA analog (microhelix) [2] = test: Aminoacylation of tRNA analog (microhelix) with flexizyme dFx, acid PAGE analysis; type: biochemical; settings: 5 mM substrate, 50 mM Hepes-K pH 7.5, 50 mM MgCl2, 20% DMSO, on ice overnight, FIG. 1-1, 1-2
Experimental: (§1) In the present embodiment, a tRNA was aminoacylated with the active ester synthesized in Example 1 as a substrate using a flexizyme. In order to conveniently confirm acylation with various amino acids, the acylation reaction was performed using, instead of an initiating tRNA (tRNA^Met), a microhelix corresponding to a short analog of the initiating tRNA and the solution after the reaction was subjected to polyacrylamide gel electrophoresis analysis under acidic conditions in order to confirm the aminoacylation efficiency. The mobility of the band derived from the microhelix is slow when it has been aminoacylated. The aminoacylation efficiency can be determined by comparing the intensity of the microhelix band to that of the acylated microhelix band.
The acylation reaction was carried out overnight on ice in a 50 mM Hepes-K buffer (pH 7.5) and 50 mM MgCl2, with a 25 µM flexizyme (dFx), a 25 μM tRNA analog (microhelix) and a 5 mM substrate added to 20% DMSO. […]
The detailed procedure was as follows: 1 μL of a 500 mM Hepes-K buffer (pH 7.5), 1 μL of a 250 µM flexizyme (dFx) and 1 μL of a 250 µM tRNA analog were added to 3 μL of ultrapure water, and the mixture was heated at 95° C. for 2 minutes, and allowed to cool at room temperature for 5 minutes. […] This solution was analyzed with 20% modified PAGE (50 mM sodium acetate, 6 M urea) under acidic conditions.

tRNA analog (microhelix) [3] = test: Aminoacylation of tRNA analog (microhelix) with flexizyme eFx, acid PAGE analysis; type: biochemical; settings: 5 mM substrate, 50 mM Hepes-K pH 7.5, 600 mM MgCl2, 20% DMSO, on ice overnight, FIG. 1-3, 1-4
Experimental: as §1
The acylation reaction was carried out overnight on ice in a 50 mM Hepes-K buffer (pH 7.5) and 600 mM MgCl2, with a 25 µM flexizyme (eFx), a 25 µM tRNA analog (microhelix) and 5 mM substrate added to 20% DMSO. […]
The detailed procedure was as follows: 4 μL of a 500 mM Hepes-K buffer (pH 7.5), 4 μL of a 250 µM flexizyme (eFx) and 4 μL of a 250 µM tRNA analog were added to 12 μL of ultrapure water, and the mixture was heated at 95° C. for 3 minutes, and allowed to cool at room temperature for 5 minutes. […] This solution was analyzed with 20% modified PAGE (50 mM sodium acetate, 6 M urea) under acidic conditions.

SMILES | position of log QDSC vs log(TDSC-25) plot relative to hazard determination line [1] | other results
NCC(=O)OCc1cc([N+](=O)[O-])cc([N+](=O)[O-])c1 [Gly-DBE_HCl, 3,5-dinitrobenzyl glycinate] | above the hazard determination line | –
Cl.NCC(=O)OCc1cc(Cl)nc(Cl)c1 [Gly-DCPE_HCl, (2,6-Dichloropyridin-4-yl)methyl glycinate hydrochloride] | below the hazard determination line | –
Cl.Cl.N[C@@H](Cc1c[nH]c2ncccc12)C(=O)OCC(F)(F)F [L-W7N-TEE_HCl, 2,2,2-Trifluoroethyl (S)-2-amino-3-(1H-pyrrolo[2,3-b]pyridin-3-yl)propanoate dihydrochloride] | below the hazard determination line | –
CC[C@H](C)[C@H](N)C(=O)OCc1cc(Cl)nc(Cl)c1 [Compound No. 21, (2,6-dichloropyridin-4-yl)methyl L-isoleucinate] | – | acylation of tRNA analog by the flexizyme (aminoacylation efficiency) (tRNA analog (microhelix) [2]): efficiently acylated
N[C@@H](CCc1ccccc1)C(=O)OCc1cc([N+](=O)[O-])cc([N+](=O)[O-])c1 [L-Hph-DBE_HCl, 3,5-dinitrobenzyl (S)-2-amino-4-phenylbutanoate] | above the hazard determination line | –
CC[C@H](C)[C@H](N)C(=O)OCc1cc([N+](=O)[O-])cc([N+](=O)[O-])c1 [L-Ile-DBE_HCl, 3,5-dinitrobenzyl L-isoleucinate] | above the hazard determination line | –
CC[C@H](C)[C@H](N)C(=O)OCc1cc(Cl)nc(Cl)c1.Cl [L-Ile-DCPE_HCl, (2,6-Dichloropyridin-4-yl)methyl L-isoleucinate hydrochloride] | below the hazard determination line | –
NCC(=O)OCc1cc(Cl)nc(Cl)c1 [Compound No. 99, (2,6-dichloropyridin-4-yl)methyl glycinate] | – | acylation of tRNA analog by the flexizyme (aminoacylation efficiency) (tRNA analog (microhelix) [2]): efficiently acylated
N[C@@H](Cc1c[nH]c2ncccc12)C(=O)OCc1cc([N+](=O)[O-])cc([N+](=O)[O-])c1 [L-W7N-DBE_HCl, 3,5-dinitrobenzyl (S)-2-amino-3-(1H-pyrrolo[2,3-b]pyridin-3-yl)propanoate] | above the hazard determination line | –
N[C@@H](CCc1ccccc1)C(=O)OCC(F)(F)F [Compound No. 47, 2,2,2-trifluoroethyl (S)-2-amino-4-phenylbutanoate] | – | acylation of tRNA analog by the flexizyme (aminoacylation efficiency) (tRNA analog (microhelix) [3]): efficiently acylated
